≈ marks a conversion by molar mass, not a printed value.
Legend:
[1] = physchem; settings: 37 °C, pH 7, aqueous buffer, thermodynamic from solid
Procedure: Solubility as meant herein is measured using USP apparatus 2 (U.S. Pharmacopoeia 32-NF27) with agitation at 75 RPM in the dissolution medium of a phosphate buffer maintained at pH 6.8 and 37° C. Such low solubility makes preparing a useful pharmaceutical composition of acceptable size and efficacy especially difficult.
In a preferred embodiment, this is irrespective of the pharmacological effect it might have or ailment it is used to prevent or treat.
The pharmaceutical compositions, powders or granulates according to the invention comprise the hyperbranched polymer/API in specific weight ratios.

[2] = pH 6.8
[3] = physchem; settings: pH 6.8, aqueous buffer
[4] = In vitro dissolution of glimepiride, USP Apparatus II (paddle), phosphate buffer pH 6.8; assay type: physicochemical; settings: mixed with hyperbranched polymer at the ratio of the invention, 37 °C, figures 3 and 4
Procedure: Approximately 50 % of the active ingredient (4 mg) is dissolved after 60 minutes of testing at following conditions: 37 °C in the USP Dissolution Tester, Apparatus II (Paddle method) using 900 ml of phosphate buffer (pH 6.8) as the dissolution medium and at a rotation rate of 75 rpm.
Dissolution of glimepiride was assessed at 37 °C by the USP Dissolution Tester, Apparatus II (Paddle method) at a rotation rate of 75 rpm using 900 ml of phosphate buffer (pH 6.8) as dissolution medium. The tested samples were added directly to the buffer in the correct amount to achieve a final concentration of 4,4 µg / mL glimepiride (equals therapeutic dose dissolved in 900 mL). Aliquots, each of 2 ml, from the dissolution medium were withdrawn at time intervals of 5, 15, 30, 60 minutes. The samples were withdrawn through syringe and filtered through Millipore filter and analyzed for glimepiride content using HPLC method.
The amount of dissolved glimepiride was estimated by reversed-phase HPLC (Waters Alliance) in a binary mode, with a photodiode array detector and a communication bus module. […]

[5] = In vitro dissolution of indapamide, USP Apparatus II (paddle), phosphate buffer pH 6.8; assay type: physicochemical; settings: with polyesteramide hyperbranched polymers, figure 5
Procedure: Dissolution of indapamide was assessed at 37 °C by the USP Dissolution Tester, Apparatus II (Paddle method), using 900 ml of phosphate buffer (pH 6.8) as the dissolution medium and at a rotation rate of 75 rpm. The tested samples were added directly to buffer in an amount in order to achieve a final concentration of 15 µg / mL indapamide. Aliquots, each of 2 ml, from the dissolution medium were withdrawn at time intervals of 5, 15, 30, 60 minutes. The samples were withdrawn through syringe and filtered through Millipore filter in order to separate the undissolved sample and analyzed for indapamide using UV spectrofotometry at 287 nm.

[6] = In vitro dissolution of pimobendan, USP Apparatus II (paddle), phosphate buffer pH 6.8; assay type: physicochemical; settings: admixed with Hybrane S1200, 2% and 5% of active ingredient
Procedure: The samples of pimobendan were prepared as in examples 6 to 13. Dissolution of pimobendan was assessed at 37 °C by the USP Dissolution Tester, Apparatus II (Paddle method) at a rotation rate of 75 rpm, using 900 ml of phosphate buffer (pH 6.8) as the dissolution medium. The tested samples were added directly to the buffer in the correct amount to achieve a final concentration of 5.5 µg / mL pimobendan (equals therapeutic dose dissolved in 900 mL). Aliquots, each of 2 ml, from the dissolution medium were withdrawn at time intervals of 5, 15, 30, 60 minutes. The samples were withdrawn through syringe and filtered through Millipore filter in order to separate the undissolved sample and analyzed for pimobendan using HPLC method.

[7] = Solubility in the presence of Hybrane S1200

SMILES | solubility [1] | Increase [2] | solubility [3, 7] | solubility ([3]; Solubility without polymer) | solubility of glimepiride [4] | solubility of the indapamide [5] | solubility of the active ingredient [6]
O=C1C(O)=C([C@H]2CC[C@H](c3ccc(Cl)cc3)CC2)C(=O)c2ccccc21 [atovaquone] | 3 µg/mL (≈ 8.18 µM) | 100 fold | 3 µg/mL | 0.03 µg/mL (≈ 0.0818 µM) | – | – | –
COc1ccc(Cl)cc1C(=O)NCCc1ccc(S(=O)(=O)NC(=O)NC2CCCCC2)cc1 [glibenclamide] | 60 µg/mL (≈ 121 µM) | – | – | – | – | – | –
Cc1ccc(S(=O)(=O)NC(=O)NN2CC3CCCC3C2)cc1 (stereo not shown) [gliclazide] | 50 µg/mL (≈ 155 µM) | – | – | – | – | – | –
CCC1=C(C)CN(C(=O)NCCc2ccc(S(=O)(=O)NC(=O)N[C@H]3CC[C@H](C)CC3)cc2)C1=O [glimepiride] | 1 µg/mL (≈ 2.04 µM) | 10 fold | 10 µg/mL | 1 µg/mL (≈ 2.04 µM) | significantly increased | – | –
CC1Cc2ccccc2N1NC(=O)c1ccc(Cl)c(S(N)(=O)=O)c1 (stereo not shown) [indapamide] | 700 µg/mL (≈ 1910 µM) | 140 fold | 700 µg/mL | 5 µg/mL (≈ 13.7 µM) | – | remarkably enhance | –
COc1ccc(-c2nc3ccc(C4=NNC(=O)CC4C)cc3[nH]2)cc1 (stereo not shown) [pimobendan] | 210 µg/mL (≈ 628 µM) | 50 fold | 210 µg/mL | 4 µg/mL (≈ 12 µM) | – | – | significantly increases
CN1CC(=O)N2[C@H](c3ccc4c(c3)OCO4)c3[nH]c4ccccc4c3C[C@@H]2C1=O [tadalafil] | 110 µg/mL (≈ 282 µM) | 55 fold | 110 µg/mL | 2 µg/mL (≈ 5.14 µM) | – | – | –

Source: patent EP2311435A1, “Pharmaceutical composition comprising poorly soluble active ingredient and hyperbranched polymer” (LEK Pharmaceuticals d.d., priority 2009, dated 2011)
